pKi: −log10 of the molar value.
Target: Spermine oxidase (Homo sapiens, UniProt Q9NWM0)
Test: Enzyme Inhibition Assay
Details: pH 8.3; 25 °C
Method: SMO activity was assayed at pH 8.3 (0.1 M Tris-HCl buffer) and 25°C using Spm as the substrate in the presence and absence of CHX.

Spermine oxidase, sequence (Q9NWM0 whole entry): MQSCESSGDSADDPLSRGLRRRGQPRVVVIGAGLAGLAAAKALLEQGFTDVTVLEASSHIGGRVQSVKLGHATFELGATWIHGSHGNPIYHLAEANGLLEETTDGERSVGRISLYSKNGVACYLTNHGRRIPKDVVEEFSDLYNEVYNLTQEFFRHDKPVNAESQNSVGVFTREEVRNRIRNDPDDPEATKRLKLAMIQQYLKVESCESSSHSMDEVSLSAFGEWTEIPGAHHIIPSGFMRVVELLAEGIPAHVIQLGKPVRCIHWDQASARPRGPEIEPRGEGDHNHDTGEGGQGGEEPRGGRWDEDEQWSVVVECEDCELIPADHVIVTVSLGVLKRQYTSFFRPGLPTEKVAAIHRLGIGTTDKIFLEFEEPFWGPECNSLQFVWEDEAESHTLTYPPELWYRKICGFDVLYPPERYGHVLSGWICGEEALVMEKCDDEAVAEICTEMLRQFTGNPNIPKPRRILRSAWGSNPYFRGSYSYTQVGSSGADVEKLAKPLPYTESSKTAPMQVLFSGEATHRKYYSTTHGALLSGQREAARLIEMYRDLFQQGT

Work on `[H]/N=C(\N/C(=N/[H])NCCCCCCNC(=N)NC(=N)Nc1ccc(Cl)cc1)Nc1ccc(Cl)cc1` [Chlorhexidine (1)] yielded a pKi of 6.26.

Reference: BindingDB's records for doi:10.3109/14756366.2011.650691 (University Roma Tre, 2013)
